Reference: US20240254132A1, “COMPOUNDS, COMPOSITIONS AND METHODS” (Denali Therapeutics Inc., priority 2021, published 2024)

Test system: IL-1β secretion, THP-1 cells
Assay: IL-1β secretion assay in PMA-differentiated THP-1 cells (LPS + nigericin stimulation, IL-1β ELISA)
Format: cell-based
Conditions: LPS 25 ng/mL, IL-1β by ELISA
Description: Compounds as provided herein were tested in the following assay. Cell culture medium employed contained RPMI 1640 medium (89%), FBS (10%), Pen/Strep (1%), and 2-mercaptoethanol (0.05 mm). Freezing medium was made up of 90% FBS and 10% DMSO. THP-1 cells were removed from the liquid nitrogen and placed into a 37° C. water bath to thaw, until signs of ice dissipated. The cells were then added to 9 mL of warm cell culture medium and centrifuged for 5 minutes at 1000 rpm. The supernatant was discarded, and the cells were resuspended in new cell culture medium. THP-1 cells were then split and cultured in the cell culture medium, being passaged every 2-3 days with the cell density will be maintained between 5×10^5 and 1.5×10^6 viable cells/mL.
Procedure for […], Secretion Assay in 384-Well Plates
PMA was dissolved in DMSO to make a stock solution at 5 mg/mL and stored in 10 μl aliquots at −20° C. for single use. PMA is added to normal growth medium. LPS was diluted with 1 mL of water solution to provide a 1 mg/mL stock solution and stored in 15 μl aliquots at −20° C. for single use. Nigericin is diluted in ice cold 100% ethanol to 5 mg/mL (6.7 mM) and stored in 75 μL aliquots at −20° C. for single use. Serum-free media contains RPMI 1640 medium (99%), Pen/Strep (1%), and 2-mercaptoethanol (0.05 mM). The two control conditions used to qualify and normalize test compound dose-response curves were as follows: High Control=25 ng/mL LPS, 5 μM Nigericin, 0.5% DMSO, Low Control=25 ng/mL, LPS, 0.5% DMSO.
THP-1 cells were diluted to provide a suspension at a concentration of 1.0×10^6 cells/mL with the total volume of suspension required to enable the desired number of assay plates. The growth media was supplemented with PMA (5 ng/mL final concentration) and the cells were incubated at 37° C. under a humidified atmosphere of 5% CO2 for 40 h.
All media was carefully aspirated from each culture flask. The cells were washed carefully with 1×DPBS. The cells were then briefly digested with trypsin LE for 5 minutes at 23° C. and immediately resuspended in cell growth media. After resuspension, the cells were centrifuged at 1000 rpm for 3 minutes and the supernatant was discarded. The cells were resuspended in DPBS and once again centrifuged at 1000 rpm for 5 minutes. The supernatant was discarded and the cell pellet was resuspended in serum-free media supplemented with LPS (25 ng/mL final concentration) to enable the distribution of 30K THP-1 cells within 45 μL of media into each well of 384-well PDL-coated plates. The 384-well plates were then incubated at 37° C. under a humidified atmosphere of 5% CO2 for 2 h. Following this period, test compounds were dispensed by Tecan across the desired concentration range with all wells normalized to a final 0.5% DMSO concentration. The plates were then incubated at 37° C. under a humidified atmosphere of 5% CO2 for 1 h. Following this period, 5 μL of the 5 mg/mL nigericin stock solution was added to each of the appropriate wells and plates were centrifuged at 1000 rpm for 30 seconds. The plates were the immediately reintroduced to the incubator at 37° C. under a humidified atmosphere of 5% CO2 for 2 h. After this time, 35 μL/well of supernatant was collected and transferred into v-bottom plate and centrifuged at 1000 rpm for 1 minute. These supernatant aliquots were analyzed using an IL-Iβ detection kit as described below. If needed, the test samples could be snap frozen and stored at −80° C. until analyzed.
To prepare each ELISA plate, capture antibody (mAb Mt175) was diluted with PBS to a final concentration of 2 μg/mL and then 20 μL of this solution was added to each well of the ELISA plate. Each plate was allowed to incubate overnight at 4° C. The next day, the capture antibody solution was removed and discarded. Each ELISA plate was washed 4 times with PBST followed by the addition of 25 μL/well of blocking buffer (Licor-927-40010) supplemented with 0.1% Tween 20. […]

[1] = Homo sapiens, THP-1, class symbol
[2] = Homo sapiens, THP-1, numeric value

Row | Compound | IC50 [1] [nM] | IC50 [2] [nM] | IC50 (numeric value) [nM]
1 | CC(C(=O)Nc1ncc(F)cn1)N1C(=O)c2ccc(Br)c(F)c2C2(CC2)C1=O (centres unmarked) [Example 21, 2-(6′-bromo-5′-fluoro-1′,3′-dioxospiro[cyclopropane-1,4′-isoquinoline]-2′-yl)-N-(5-fluoropyrimidin-2-yl)propanamide] | < 10000 | 936 | –
2 | N#Cc1cnc(NC(=O)CN2C(=O)c3ccc(Br)c(F)c3C3(CC3)C2=O)c(F)c1 [Example 18, 2-(6′-bromo-5′-fluoro-1′,3′-dioxospiro[cyclopropane-1,4′-isoquinoline]-2′-yl)-N-(5-cyano-3-fluoropyridin-2-yl)acetamide] | < 10000 | 331 | –
3 | O=C(CN1C(=O)c2ccc(Br)cc2C2(CCC2)C1=O)Nc1ncc(F)cn1 [Example 8, 2-(6′-bromo-1′,3′-dioxospiro[cyclobutane-1,4′-isoquinoline]-2′-yl)-N-(5-fluoropyrimidin-2-yl)acetamide] | < 10000 | 388 | –
4 | O=C(CN1C(=O)c2ccc(C3CC3)c(F)c2C2(CC2)C1=O)Nc1ncc(F)cn1 [Example 11, 2-(6′-cyclopropyl-5′-fluoro-1′,3′-dioxospiro[cyclopropane-1,4′-isoquinoline]-2′-yl)-N-(5-fluoropyrimidin-2-yl)acetamide] | < 10000 | 332 | –
5 | CC1(C)C(=O)N(CC(=O)Nc2ncc(F)cn2)C(=O)c2ccc(Br)cc21 [Example 7] | < 10000 | 269 | –
6 | O=C(CN1C(=O)c2ccc(Br)cc2C2(CC2)C1=O)N[C@@H]1CCCN(C2CCC2)C1 [Example 9, 2-(6′-bromo-1′,3′-dioxospiro[cyclopropane-1,4′-isoquinoline]-2′-yl)-N-[(3R)-1-cyclobutylpiperidin-3-yl]acetamide] | < 10000 | 307 | –
7 | O=C(CN1C(=O)c2ccc(Br)cc2C2(COC2)C1=O)Nc1ncc(F)cn1 [Example 19, 2-(6-bromo-1,3-dioxospiro[isoquinoline-4,3′-oxetane]-2-yl)-N-(5-fluoropyrimidin-2-yl)acetamide] | < 10000 | 4460 | –
8 | C[C@H]1C[C@@]12C(=O)N(CC(=O)Nc1ncc(F)cn1)C(=O)c1ccc(Br)cc12 (single isomer, unassigned) [Example 13, N-(5-fluoropyrimidin-2-yl)-2-[(1r,2s)-6′-bromo-2-methyl-1′,3′-dioxospiro[cyclopropane-1,4′-isoquinoline]-2′-yl]acetamide] | < 10000 | – | 286

Second part, the molecule after the results:

Row | IC50 [1] [nM] | IC50 [2] [nM] | IC50 (numeric value) [nM] | Compound
9 | < 10000 | 90 | – | N#Cc1cnc(NC(=O)CN2C(=O)c3ccc(Br)c(F)c3C3(CC3)C2=O)nc1 [Example 26, 2-(6′-bromo-5′-fluoro-1′,3′-dioxospiro[cyclopropane-1,4′-isoquinoline]-2′-yl)-N-(5-cyanopyrimidin-2-yl)acetamide]
10 | < 10000 | 184 | – | O=C(CN1C(=O)c2ccc(Br)cc2C2(CC2)C1=O)Nc1ncc(F)cn1 [Example 33, 2-(6′-bromo-1′,3′-dioxospiro[cyclopropane-1,4′-isoquinoline]-2′-yl)-N-(5-fluoropyrimidin-2-yl)acetamide]
11 | < 10000 | 99 | – | O=C(CN1C(=O)c2ccc(Br)c(F)c2C2(CC2)C1=O)Nc1ncc(F)cn1 [Example 29, 2-(6′-bromo-5′-fluoro-1′,3′-dioxospiro[cyclopropane-1,4′-isoquinoline]-2′-yl)-N-(5-fluoropyrimidin-2-yl)acetamide]
12 | < 10000 | 2170 | – | CCC(C(=O)Nc1ncc(F)cn1)N1C(=O)c2ccc(Br)cc2C2(CC2)C1=O (centres unmarked) [Example 23, 2-(6′-bromo-1′,3′-dioxospiro[cyclopropane-1,4′-isoquinoline]-2′-yl)-N-(5-fluoropyrimidin-2-yl)butanamide]
13 | < 10000 | 8080 | – | O=C1c2ccc(Br)cc2C2(CC2)C(=O)N1C1(C(=O)Nc2ncc(F)cn2)CC1 [Example 22, 1-(6′-bromo-1′,3′-dioxospiro[cyclopropane-1,4′-isoquinoline]-2′-yl)-N-(5-fluoropyrimidin-2-yl)cyclopropane-1-carboxamide]
